Converted amounts (≈) assume the structure as drawn. Counter-ions that a name gives are not always drawn. Like-named read-outs stand apart in the source and are kept apart here.
Assays:
Type in all cases: cell-based
[1] = system: clinically isolated Staphylococcus aureus; experiment: In vitro antibacterial activity against clinical isolates, Experiment 2; conditions: for MIC50: 50% of strains, read-out: MIC50
Method: (§1) The above solutions were then diluted with sterilized distilled water to prepare a standard solution with a concentration of the test compound: 1000 μg/ml each.
(§2) For the preculture of each microorganism, there was used as the medium a sensitivity test broth (manufactured by Nissui Seiyaku K. K., Japan), and for the measurement of MIC, there was used a sensitivity test agar medium (manufactured by Nissui Seiyaku K. K.).
(§3) The clinically isolates used above were isolated from Nov. 1988 to Jun. 1989 and were obtained from Research Section, Tokyo Clinical Research Center.

[2] = system: clinically isolated Enterococcus faecalis; experiment: as above
Method: as §1, §2, §3

[3] = system: clinically isolated Staphylococcus epidermidis; experiment: as above; conditions: Staphylococcus epidermidis; for MIC90: 90% of strains, read-out: MIC90
Method: as §1, §2, §3

[4] = system: clinically isolated Enterococcus faecium; experiment: as above; conditions: for MIC / MIC90: 25 clinical strains E. faecium; for MIC90: 90% of strains, read-out: MIC90
Method: as §1, §2, §3

[5] = system: Staphylococcus aureus FDA 209P JC-1; experiment: MIC, Experiment 1; conditions: FDA209P, S. aureus FDA 209P JC-1, Gram +, read-out: Min. inhib. concentr. (MIC)
Method: (§4) The compounds of the present invention (B, E, G, H, M, N, O, P and Q) were each dissolved in dimethylsulfoxide to prepare a solution of 5000 μg/ml in concentration. The compounds of the present invention (I, J and K) and the known compound (Y) were each dissolved in sterilized distilled water to prepare a solution of 5000 μg/ml in concentration. Each solution was diluted with sterilized distilled water to prepare a standard solution with a concentration of each test compound: 1000 μg/ml. The test was carried out by a method as appointed by Japan Society of Chemotherapy [cf. Chemotherapy, 29, 76-79 (1981), TOKYO].
(§5) As to Streptococcus pneumoniae and Streptococcus pyogenes, Brain heart infusion broth (manufactured by DIFCO) was used as the medium for the preculture thereof, and a heart infusion agar medium containing 5% defibrinated horse blood (manufactured by Nissui Seiyaku K. K., Japan) was used as the medium for the measurement of minimum inhibitory concentration (MIC). As to other microorganisms, a sensitivity test broth (manufactured by Nissui Seiyaku K. K.) was used as the medium for the preculture thereof, and a sensitivity test agar medium (manufactured by Nissui Seiyaku K. K.) was used as the medium for the measurement of MIC.

[6] = system: Staphylococcus aureus Cowan I (IID 975); experiment: MIC, Experiment 1; conditions: IID975, S. aureus Cowan I (IID 975), Gram +, read-out: Min. inhib. concentr. (MIC)
Method: as §4, §5

[7] = system: Enterobacter cloacae 963; experiment: MIC, Experiment 1; conditions: E. cloacae 963, Gram -, read-out: Min. inhib. concentr. (MIC)
Method: as §4, §5

[8] = system: Staphylococcus aureus ATCC 9144; experiment: MIC, Experiment 1; conditions: ATCC9144, S. aureus ATCC 9144, Gram +, read-out: Min. inhib. concentr. (MIC)
Method: as §4, §5

[9] = system: Streptococcus pyogenes Cook; experiment: MIC, Experiment 1; conditions: S. pyogenes Cook, Gram +, agar with 5% defibrinated horse blood, read-out: Min. inhib. concentr. (MIC)
Method: as §4, §5

[10] = system: Streptococcus pneumoniae IID 552; experiment: MIC, Experiment 1; conditions: IID552, S. pneumoniae IID 552, Gram +, agar with 5% defibrinated horse blood, read-out: Min. inhib. concentr. (MIC)
Method: as §4, §5

[11] = system: Streptococcus pyogenes Su; experiment: MIC, Experiment 1; conditions: S. pyogenes Su, Gram +, agar with 5% defibrinated horse blood, read-out: Min. inhib. concentr. (MIC)
Method: as §4, §5

[12] = system: Staphylococcus aureus FDA 243; experiment: MIC, Experiment 1; conditions: FDA243, S. aureus FDA 243, Gram +, read-out: Min. inhib. concentr. (MIC)
Method: as §4, §5

[13] = system: Klebsiella pneumoniae PCI-602; experiment: MIC, Experiment 1; conditions: PCI602, K. pneumoniae PCI-602, Gram -, read-out: Min. inhib. concentr. (MIC)
Method: as §4, §5

[14] = system: Proteus mirabilis IFO 3849; experiment: MIC, Experiment 1; conditions: IFO3849, P. mirabilis IFO 3849, Gram -, read-out: Min. inhib. concentr. (MIC)
Method: as §4, §5

[15] = system: Micrococcus luteus ATCC 9341; experiment: MIC, Experiment 1; conditions: ATCC9341, M. luteus ATCC 9341, Gram +, read-out: Min. inhib. concentr. (MIC)
Method: as §4, §5

[16] = system: Bacillus subtilis ATCC 6633; experiment: MIC, Experiment 1; conditions: ATCC6633, B. subtilis ATCC 6633, Gram +, read-out: Min. inhib. concentr. (MIC)
Method: as §4, §5

[17] = system: Streptococcus pyogenes Sv; experiment: MIC, Experiment 1; conditions: S. pyogenes Sv, Gram +, agar with 5% defibrinated horse blood, read-out: Min. inhib. concentr. (MIC)
Method: as §4, §5

[18] = system: Acinetobacter calcoaceticus Ac 54; experiment: MIC, Experiment 1; conditions: AC54, A. calcoaceticus Ac 54, Gram -, read-out: Min. inhib. concentr. (MIC)
Method: as §4, §5

[19] = system: Streptococcus pneumoniae IID 554; experiment: MIC, Experiment 1; conditions: IID554, S. pneumoniae IID 554, Gram +, agar with 5% defibrinated horse blood, read-out: Min. inhib. concentr. (MIC)
Method: as §4, §5

[20] = system: Staphylococcus aureus MS-353; experiment: MIC, Experiment 1; conditions: MS353, S. aureus MS-353, Gram +, read-out: Min. inhib. concentr. (MIC)
Method: as §4, §5

[21] = system: Staphylococcus aureus Terajima (IID 670); experiment: MIC, Experiment 1; conditions: IID670, S. aureus Terajima (IID 670), Gram +, read-out: Min. inhib. concentr. (MIC)
Method: as §4, §5

[22] = system: Pseudomonas aeruginosa NCTC 10490; experiment: MIC, Experiment 1; conditions: NCTC10490, P. aeruginosa NCTC 10490, Gram -, read-out: Min. inhib. concentr. (MIC)
Method: as §4, §5

[23] = 25 clinical strains S. aureus incl. 16 methicillin resistant
[24] = 25 clinical strains E. faecalis
[25] = 25 clinical strains S. epidermidis

SMILES | MIC [1, 23] [µg/mL] | MIC50 [1, 23] [µg/mL] | MIC50 [2] [µg/mL] | MIC [2, 24] [µg/mL] | MIC [3, 25] [µg/mL] | MIC90 [3, 25] [µg/mL] | MIC50 [4] [µg/mL] | MIC [4] [µg/mL] | MIC90 [4] [µg/mL] | MIC [5] [µg/mL] | MIC [6] [µg/mL] | MIC [7] [µg/mL] | MIC [8] [µg/mL] | MIC [9] [µg/mL] | MIC [10] [µg/mL] | MIC [11] [µg/mL] | MIC [12] [µg/mL] | MIC [13] [µg/mL] | MIC [14] [µg/mL] | MIC [15] [µg/mL] | also measured
CCOCC1CN(c2c(F)cc3c(=O)c(C(=O)O)c4scc5n4c3c2N(C)C5)CCO1 (stereo not drawn) [Compound (Q), 9,1-(Methylimino)methano-7-fluoro-8-(2-ethoxymethylmorpholino)-5-oxo-5H-thiazolo[3,2-a]quinoline-4-carboxylic acid] | 0.006 to 0.78 (≈ 0.0134 to 1.74 µM) | 0.013 (≈ 0.0291 µM) | 0.39 (≈ 0.872 µM) | 0.05 to 6.25 (≈ 0.112 to 14 µM) | 0.006 to 0.78 (≈ 0.0134 to 1.74 µM) | 0.39 (≈ 0.872 µM) | 3.13 (≈ 6.99 µM) | 0.2 to 25 (≈ 0.447 to 55.9 µM) | 12.5 (≈ 27.9 µM) | 0.1 (≈ 0.223 µM) | 0.05 (≈ 0.112 µM) | 1.56 (≈ 3.49 µM) | 0.025 (≈ 0.0559 µM) | 0.2 (≈ 0.447 µM) | 0.39 (≈ 0.872 µM) | 0.2 (≈ 0.447 µM) | 0.05 (≈ 0.112 µM) | 0.2 (≈ 0.447 µM) | 1.56 (≈ 3.49 µM) | 0.39 (≈ 0.872 µM) | MIC90 [1]: 0.78 µg/mL (≈ 1.74 µM); MIC90 [2]: 6.25 µg/mL (≈ 14 µM); MIC50 [3]: 0.025 µg/mL (≈ 0.0559 µM); MIC [16]: 0.05 µg/mL (≈ 0.112 µM); MIC [17]: 0.39 µg/mL (≈ 0.872 µM); MIC [18]: 0.05 µg/mL (≈ 0.112 µM); MIC [19]: 0.39 µg/mL (≈ 0.872 µM); MIC [20]: 0.1 µg/mL (≈ 0.223 µM); MIC [21]: 0.1 µg/mL (≈ 0.223 µM); MIC [22]: 1.56 µg/mL (≈ 3.49 µM)
COCC1CN(c2c(F)cc3c(=O)c(C(=O)O)c4scc5n4c3c2N(C)C5)CCN1C (stereo not drawn) [Compound (J), 9,1-(Methylimino)methano-7-fluoro-8-(3-methoxymethyl-4-methyl-1-piperazinyl)-5-oxo-5H-thiazolo[3,2-a]quinoline-4-carboxylic acid hydrochloride] | 0.05 to 6.25 | 0.1 | 0.39 | 0.2 to 12.5 | 0.05 to 6.25 | 3.13 | 3.13 | 0.39 to 25 | 12.5 | 0.05 | 0.05 | 0.39 | 0.1 | 0.1 | 0.05 | 0.1 | 0.05 | 0.05 | 1.56 | 0.39 | MIC90 ([1]; 25 clinical strains S. aureus incl. 16 methicillin resistant, 90% of strains, read-out: MIC90): 3.13 µg/mL; MIC90 ([2]; 25 clinical strains E. faecalis, 90% of strains, read-out: MIC90): 12.5 µg/mL; MIC50 ([3]; 25 clinical strains S. epidermidis, 50% of strains, read-out: MIC50): 0.1 µg/mL; MIC [16]: 0.05 µg/mL; MIC [17]: 0.1 µg/mL; MIC [18]: 0.1 µg/mL; MIC [19]: 0.1 µg/mL; MIC [20]: 0.1 µg/mL; MIC [21]: 0.1 µg/mL; MIC [22]: 1.56 µg/mL
